Measurements from patent US20220394981A1, “MICRONUTRIENT FORMULATIONS THAT CONTROL PLANT PATHOGENS” (priority 2021, published 2022).
Where two headings read alike, the source gives them in different places.

What was measured:
[1] = cited from earlier work
[2] = cited from earlier work; remark: listed apart in the source
[3] = cited from earlier work; remark: listed apart in the source
[4] = cited from earlier work; remark: listed apart in the source
[5] = cited from earlier work; remark: listed apart in the source
[6] = cited from earlier work; remark: listed apart in the source
citrus greening disease = format: in vivo, Ruby red grapefruit trees; details: for Percentage of Trees Showing HLB Leaf Patterns: 270 days after the first treatment application
Protocol: (§1) Experimental testing was performed at the Florida Research Center for Agricultural Sustainability (“FLARES”) in Vero Beach, Fla. where the inventor, Robert C. Adair, Jr. serves as the executive director after having founded FLARES in 2004. Testing was conducted on a uniform block of ninety-six (96) Ruby red grapefruit trees planted on Dec. 19, 2018 grafted with USDA “US-897” citrus rootstock. The red grapefruit trees were randomly assigned one of eight (8) treatments in twelve (12) replicated plots using a Randomized Complete Block (“RCB”) design to help ensure homogeneous conditions between test subject trees. The red grapefruit trees were treated using liquid formulations applied to the foliage, the soil proximal to the rhizosphere of the plant, or applied to both the foliage and the soil. The micronutrient chelate formulations were applied monthly, the citric acid treatments were applied weekly, and the iron nitrate treatment was applied every two weeks.
(§2) Before being treated, the red grapefruit trees were allowed time to establish root systems. The red grapefruit trees were exposed to infection of the CLas bacteria through native populations of the Asian citrus psyllid insect, which is the vector that spreads citrus greening disease among trees. The caliper, canopy diameter, and height for each grapefruit tree was measured prior to treatment and subsequently measured every six (6) to nine (9) months thereafter for the two-and-half (2.5) year duration of the experiment.
Tree condition was scored visually according to the disease indexing (“DI”) technique taught by Gottwald, Aubert, and Xue-Yuan. See Gottwald, T. R., B. Aubert, and Z. Xue-Yuan, Preliminary Analysis of Citrus Greening (Huanglungbin) Epidemics in the People's Republic of China and French Reunion Island, PHYTOPATHOLOGY Vol. No. 79: 687-693 (1989). Disease indexing techniques divide an image of a plant into multiple sections and/or subsections, such as hemispheres and quadrants, and assign each image section a score from zero to four. The score reflects the observable severity of disease impact on a plant with a score of four indicating a plant with no visible symptoms and a score of zero indicating the highest level of severity. The score for all sections of a plant image are added together to establish an overall DI score for a particular plant image, such that a healthy vigorous tree with no symptoms has a DI of 16.
Table 5 below presents data from the visual inspection of the red grapefruit trees for the symptoms of citrus greening disease measured at 270 days after the first treatment application or approximately half way through the experiment.

[7] = test system: Ruby red grapefruit trees; test: Tree growth versus untreated control, field trial; details: in vivo
Protocol: as §1
Before being treated, the red grapefruit trees were allowed time to establish root systems. […] The caliper, canopy diameter, and height for each grapefruit tree was measured prior to treatment and subsequently measured every six (6) to nine (9) months thereafter for the two-and-half (2.5) year duration of the experiment.
Canopy areas were determined from aerial images captured by a camera-equipped unmanned aerial vehicle (“UAV”). […]

CLas bacteria = format: in vivo, Ruby red grapefruit trees
Protocol: as §1, §2
Individual leaf samples were collected from each of the ninety-six (96) trees and submitted to Southern Gardens Diagnostic Laboratory in Clewiston, Fla. for Polymerase Chain Reaction (“PCR”) analysis to determine the presence of CLas bacteria DNA. The results were expressed cycle threshold (“Ct”) values, and the logarithm of the copy number per milligram of tissue values were recorded and statistically evaluated. In a PCR analysis, a positive reaction is detected by the accumulation of a fluorescent signal. The Ct value is defined as the number of cycles required for a fluorescent signal to cross a threshold (i.e., exceeds background levels). Ct values are inversely proportional to the amount of a target nucleic acid in the sample being tested such that the lower the Ct level, the greater the amount of target nucleic acid in the sample. Ct values less than 29 are considered strong positive reactions indicative of an abundance of the target nucleic acid, and Ct values of 38-40 are indicative of minimal amounts of target nucleic acid.

[8] = treatments applied as in Table 1 (foliar and/or soil)
[9] = treatments applied as in Table 1 (foliar and/or soil), listed as Fe(III)EDDHA

For `O=C(O)CC(NC(CC(=O)O)C(=O)O)C(=O)O` (centres unmarked) [IDHA, imidodisuccinic acid], which “LogK Fe3+ (stability constant)” value [1] is on record?
Its value is 15.2.

And the “LogK Mn2+ (stability constant)” value [2]?
The value was 7.7.

And the “LogK Cu2+ (stability constant)” value [3]?
The value was 13.1.

What about the “LogK Zn2+ (stability constant)” value [4] of the same molecule?
Its value is 10.8.

What does the source list for `O=C(O)CN(CCN(CC(=O)O)CC(=O)O)CCN(CC(=O)O)CC(=O)O` [DTPA, diethylenetriaminepentaacetic acid]?
LogK Fe2+ (stability constant) [5]: 16.5; LogK Fe3+ (stability constant) [1]: 28.6; LogK Mn2+ (stability constant) [2]: 15.1; LogK Cu2+ (stability constant) [3]: 21.1; LogK Ca2+ (stability constant) [6]: 10.7; LogK Zn2+ (stability constant) [4]: 18.3

For `O=C(O)CN(CCO)CCN(CC(=O)O)CC(=O)O` [HEEDTA], which “LogK Fe2+ (stability constant)” value [5] is on record?
The value was 12.2.

What about the “LogK Fe3+ (stability constant)” value [1] of the same molecule?
Its value is 19.6.

What about the “LogK Mn2+ (stability constant)” value [2] of the same molecule?
The value was 10.7.

What about the “LogK Cu2+ (stability constant)” value [3] of the same molecule?
Its value is 17.4.

And the “LogK Ca2+ (stability constant)” value [6]?
Its value is 8.0.

And the “LogK Zn2+ (stability constant)” value [4]?
The value was 14.5.

Which “LogK Fe2+ (stability constant)” value [5] does the source give for `O=C(O)CC(O)(CC(=O)O)C(=O)O` [Citrate] here?
Its value is 3.2.

What about the “LogK Fe3+ (stability constant)” value [1] of the same molecule?
The value was 11.85.

And the “LogK Mn2+ (stability constant)” value [2]?
Its value is 3.7.

What about the “LogK Cu2+ (stability constant)” value [3] of the same molecule?
Its value is 5.9.

And the “LogK Ca2+ (stability constant)” value [6]?
The value was 4.7.

What about the “LogK Zn2+ (stability constant)” value [4] of the same molecule?
Its value is 4.9.

Which “LogK Fe3+ (stability constant)” value [1] does the source give for `O=C(O)CN(CCN(CC(=O)O)CC(=O)O)CC(=O)O` [EDTA] here?
Its value is 25.1.

What about the “LogK Mn2+ (stability constant)” value [2] of the same molecule?
The value was 13.6.

And the “LogK Cu2+ (stability constant)” value [3]?
Its value is 18.8.

And the “LogK Ca2+ (stability constant)” value [6]?
The value was 10.7.

And the “LogK Zn2+ (stability constant)” value [4]?
The value was 16.5.

What does the source list for `O=C(O)[C@H](O)[C@@H](O)[C@H](O)[C@H](O)CO` [Gluconate]?
LogK Fe2+ (stability constant) [5]: 1.0; LogK Fe3+ (stability constant) [1]: 10.0; LogK Cu2+ (stability constant) [3]: 36.0; LogK Ca2+ (stability constant) [6]: 1.2; LogK Zn2+ (stability constant) [4]: 1.7?

Which results are given for `O=C([O-])C(NCCNC(C(=O)[O-])c1ccccc1[O-])c1ccccc1[O-].[Fe+3].[Na+]` (centres unmarked) [Fe-EDDHA]?
Percentage of Trees Showing HLB Leaf Patterns (citrus greening disease; treatments as in Table 1): 10%; Percentage of Trees Showing HLB Leaf Patterns (citrus greening disease; treatments as in Table 1, listed as Fe(III)EDDHA): lowest percentage of observable symptoms; symptoms of citrus greening disease, visually and analytically (CLas bacteria by PCR) (citrus greening disease; foliar and soil application): reduced the symptoms of citrus greening disease; citrus greening disease leaf symptoms, visual inspection (citrus greening disease; infected grapefruit trees): reduced; LogK Fe3+ (stability constant) [1]: 35.40; tree growth versus an untreated control [7]: increased tree growth; % of PCR Analysis Showing No CLas (Ct values = 40) (CLas bacteria; [8]): 50%; Average Ct values based on qPCR analysis of citrus leaves (CLas bacteria; [8]): 34.9; Log Copy #/1 mg of Leaf Tissue (CLas bacteria; [8]): 1.2; % of PCR Analysis Showing No CLas (Ct values = 40) (CLas bacteria; [9]): highest percentage; Average Ct values based on qPCR analysis of citrus leaves (CLas bacteria; [9]): highest Ct values; Log Copy #/1 mg of Leaf Tissue (CLas bacteria; [9]): the lowest

Which “LogK Fe2+ (stability constant)” value [5] does the source give for `O=C(O)CN(CCN(CC(=O)O)Cc1ccccc1O)Cc1ccccc1O` [HBED, N,N′-bis(2-hydroxyphenyl)ethylenediamine-N,N′-diacetic acid] here?
The value was 17.3.

And the “LogK Fe3+ (stability constant)” value [1]?
Its value is 39.0.

What about the “LogK Mn2+ (stability constant)” value [2] of the same molecule?
The value was 16.5.

And the “LogK Cu2+ (stability constant)” value [3]?
The value was 21.4.

What about the “LogK Ca2+ (stability constant)” value [6] of the same molecule?
Its value is 9.3.

And the “LogK Zn2+ (stability constant)” value [4]?
Its value is 18.3.

Which “LogK Fe3+ (stability constant)” value [1] does the source give for `O=C(O)[C@@H](O)[C@@H](O)[C@H](O)[C@@H](O)C(=O)O` [Saccharate] here?
The value was 24.5.

What about the “LogK Mn2+ (stability constant)” value [2] of the same molecule?
The value was 8.5.

And the “LogK Cu2+ (stability constant)” value [3]?
The value was 14.0.

Which results are given for `O=C(O)CN(CCO)CCN(CC(=O)O)CC(=O)O` [HEDTA]?
LogK Fe2+ (stability constant) [5]: 12.2; LogK Fe3+ (stability constant) [1]: 19.7; LogK Mn2+ (stability constant) [2]: 11.1; LogK Cu2+ (stability constant) [3]: 17.4; LogK Ca2+ (stability constant) [6]: 8.1; LogK Zn2+ (stability constant) [4]: 14.6

For Iron Citrate, which “Percentage of Trees Showing HLB Leaf Patterns” value (citrus greening disease; at 30 ppm Fe, foliar) is on record?
The value was 44%.

What about the “Percentage of Trees Showing HLB Leaf Patterns” value (citrus greening disease; at 60 ppm Fe, foliar) of the same molecule?
The value was 50%.

And the “LogK Fe2+ (stability constant)” value [5]?
Its value is 3.2.

And the “% of PCR Analysis Showing No CLas (Ct values = 40)” value (CLas bacteria; at 30 ppm Fe, foliar)?
The value was 0%.

What about the “Average Ct values based on qPCR analysis of citrus leaves” value (CLas bacteria; at 30 ppm Fe, foliar) of the same molecule?
Its value is 29.7.

And the “Log Copy #/1 mg of Leaf Tissue” value (CLas bacteria; at 30 ppm Fe, foliar)?
The value was 2.6.

What about the “% of PCR Analysis Showing No CLas (Ct values = 40)” value (CLas bacteria; at 60 ppm Fe, foliar) of the same molecule?
Its value is 0%.

What about the “Average Ct values based on qPCR analysis of citrus leaves” value (CLas bacteria; at 60 ppm Fe, foliar) of the same molecule?
Its value is 31.2.

And the “Log Copy #/1 mg of Leaf Tissue” value (CLas bacteria; at 60 ppm Fe, foliar)?
The value was 2.1.
